How the values were obtained:
[1] = system: Human female white blood cells (karyotype XX); assay: Signal enhancers in the mounting solution after in situ hybridization (Example 6), HXR probes, fluorescent microscope; format: cell-based; details: one volume compound plus 9 volumes mounting solution; rhodamine HXR probes; water control = 1
Method: After the in situ hybridization step, the cells were washed and then modified mounting solution was added and cells were observed under the microscope for fluorescence signal. Modified mounting solution was 9 volumes of mounting solution and one volume of additional compound, which was the compound being tested for its ability to be a signal enhancer. Mounting solution consisted of 0.1% 1,4 diphenylamine (antifade) in 50% glycerol (v/v), and nuclear stain Hoechst (#33258; 1 ug/ml).
Human female white blood cells (karyotype XX) were hybridized at 85° C. for 15 minutes with female chromosome HXR probes labelled with a rhodamine fluor. Cells were washed with wash buffers #1 and #2, and then suspended in a modified mounting solution. The additional compound in the modified mounting solution was varied; as a control, water was used as the additional compound. The signal intensity was observed under the fluorescent microscope.

Hepg 2 cells = assay: Slide in situ hybridization, DMSO plus one additional compound (Example 2), HYR probe; format: cell-based, human; details: 10% (v/v) additional compound with 9% DMSO; slide rating x 0.5, water control = 2; average of four experiments
Method: Slide in situ Cell Preparation and Hybridization Protocol
1) Cells were suspended in a fixative (3 vol ethanol plus 1 vol methanol) and transferred to glass slides by centrifugation using a Cytospin apparatus.
2) The assay solution (consisting of the hybridization cocktail HC alone or mixed with a compound or compounds being tested as an enhancer) with the DNA probe (25 ul) was placed over the cells and covered with a coverslip.
3) The slide was heated at 90° C. for 5 minutes for DNA denaturation, then incubated at 46° C. for 30 minutes for hybridization.
4) Cells were washed once with the wash solution #1, which was equilibrated at 42° C. Then cells were washed ten times with wash solution #2, which was equilibrated at 42° C.
5) Mounting solution (50% glycerol (v/v) in 1×PBS plus the nuclear stain Hoechst, (#33258; 1 ug/ml) was placed on the cells and covered with a coverslip.
6) The hybridization signal was observed under an Olympus BH10 microscope with fluorescent capabilities using a rhodamine derivative filters (excitation wavelength of 567 nm, emission wavelength of 584 nm).
The inclusion of DMSO in an in situ assay solution increased the permeation of the nucleic acid probes into the cells and gave hybridization signal in over 95% of the cells. In this Example, we show the effect of adding, in addition to DMSO, 10 percent (v/v) of an additional compound to the assay solution. The additional compounds added were: squalane (an aliphatic alkane), dodecyl alcohol (an alcohol), beta-cyclodextrin (a sugar), isopropyl palmitate (a fatty acid ester), 1,2, propanediol (an alcohol), pyrrolidinone (a lactam) and hexamethyldisiloxane (an organic silane).
In this Example, the hybridization cocktail consisted of nine volumes of HC-DMSO plus one volume of an additional compound. In the control sample, one volume of water was added instead of one volume of additional compound. As a result, in all samples, the concentration of DMSO in the cocktail was 9 percent (v/v).
The Slide In Situ Cell Preparation and Hybridization protocol was followed. The cells used were Hepg 2 cells. The probe used was an HYR probe specific for human Y chromosome α-satellite DNA repeated sequences; at its 5' end, via an Aminolink linker molecule, the probe was linked to a Texas Red moiety. A signal intensity of 4 was assigned to the slide in which the assay solution was HC plus 10% DMSO (control slide) and all other slides were rated 1, 2, 3 or 4 in comparison to the control slide, depending on whether the intensity was 1, 2, 3, or 4 times that of the control slide, respectively.
The results are an average of four independent experiments.

Hela cells = assay: Liquid in situ hybridization with flow cytometry, DMSO plus additional compound (Example 4), 28S RNA and NR probes; format: cell-based; details: for 28S RNA Probe, mean LFL1 / NR Probe, mean LFL1 / Ratio 28S RNA/NR (ratio of mean LFL1): 10% additional compound with 9% DMSO; for 28S RNA Probe, mean LFL1: FITC 28S RNA probe, water control 6.070, average of four experiments; for NR Probe, mean LFL1: FITC NR probe (non-specific binding and autofluorescence), water control 0.137; for Ratio 28S RNA/NR (ratio of mean LFL1): water control 44; for Signal brightness compared to nine percent DMSO alone: additional compound in combination with nine percent DMSO
From the text: (§1) A Coulter Profile II flow cytometer was used for flow cytometry. With FITC as the probe dye, the filter for LFL3 was a 635 nm long pass filter and the filter for LFL1 was a 540 bp filter; the excitation wavelength was 488 nm. PMT1 and PMT3 settings were adjusted as required. A typical useful setting when fluorescein is the dye moiety is to have a PMT1 setting of 1100, a PMT3 setting of 900, and color compensation (PMT1, PMT3) of 15 percent.
(§2) Liquid in Situ Cell Preparation and Hybridization Protocol
(§3) 1. Cells were fixed in solution F, then resuspended in 2x SSC.
(§4) 2. The cells were spun out of solution and resuspended in an assay solution (consisting of the hybridization cocktail HC alone or in combination with a compound or compounds being tested as an enhancer.)
(§5) 3. After 30 min. at 42° C., the cells were washed in wash solution #1 preheated to 42° C. by centrifuging them out of the assay solution.
(§6) 4. Cells were next washed in wash solution #2 preheated to 42° C.
(§7) 5. Cells were resuspended in a 1X PBS solution containing 0.002% trypan blue as a counterstain.
(§8) 6. Cells were run on a flow cytometer and a "Count vs. LFL1" histogram was generated. ("Count" refers to cell count.) This histogram was used as the basis for determining the mean LFL1.
The effect on probe signal intensity of adding, in addition to DMSO, additional compounds to the assay solution was determined in an in situ liquid hybridization assay. The data was analyzed by flow cytometry.
The Liquid In Situ Cell Preparation and Hybridization Protocol was followed. The cells used were Hela cells. The probes used were a 28S RNA probe (SEQ ID NO: 1) and an NR probe.
The 28S RNA probe (SEQ ID NO: 1) is a target-specific probe specific for ribosomal RNA fluorescence obtained with it represents the sum of fluorescence from target-bound probe, non-specifically bound probe and autofluorescence from cellular molecules. The NR probe (SEQ ID NO: 2) is specific for a plant nucleic acid sequence and, in the current Example, the fluorescence obtained with it represent the sum of fluorescence from non-specifically bound probe and autofluorescence.
(§9) In this experiment, the hybridization cocktail consisted of nine volumes of HC-DMSO plus one volume of additional compound. In the control sample, one volume of water replaced the one volume of additional compound. As a result, in all samples, the concentration of DMSO was 9 percent (v/v).
The ratio, 28S/NR, is the ratio of the mean LFL1 observed with the 28S RNA probe (SEQ ID NO: 1) to the mean LFL1 observed with the NR probe (SEQ ID NO: 2). The results in the "28S RNA probe" and "NR probe" columns give the mean LFL1 observed with the 28S RNA and NR probes, respectively (SEQ ID NO: 1 and SEQ ID NO: 2, respectively).

α-satellite DNA = assay: Liquid in situ hybridization with flow cytometry, DMSO plus squalane plus additional compound (Example 5), α-satellite DNA and NR probes; format: cell-based; details: for NR Probe, mean LFL1 / α-SAT Probe, mean LFL1 / Ratio α-SAT/NR (ratio of mean LFL1): 5% additional compound with 5% squalane and 9% DMSO; for NR Probe, mean LFL1: DMSO-only control 0.175; for α-SAT Probe, mean LFL1: DMSO-only control 3.829; for Ratio α-SAT/NR (ratio of mean LFL1): DMSO-only control 22; for Increase of DNA probe signal intensity compared to 9% DMSO alone: DMSO plus squalane plus the additional compound
From the text: as §1, §2, §3, §4, §5, §6, §7, §8
The Liquid In Situ Cell Preparation and Hybridization Protocol was followed.
The "α-satellite" DNA probe is a target specific probe specific α-satellite DNA. Fluorescence obtained with it represents the sum of fluorescence from target-bound probe, non-specifically bound probe and autofluorescence from cellular molecules.
The effect of a combination of DMSO and squalane on the probe signal was measured as was that combination further enhanced with a third compound.
In this Example, in all but two cases, the hybridization cocktail consisted of 9 volumes of HC-DMSO, a half volume of squalane, and a half volume of an additional compound. In one case, the additional compound was replaced by water, so that the hybridization compound consisted of 9 volumes of HC-DMSO, a half volume of squalane, and a half volume of water. In the control sample, the cocktail consisted of nine volumes of HC-DMSO and one volume of water. As a result, in all samples, there was 9 percent DMSO (v/v). When present, squalane was present at 5 percent. When present, the additional compound was present at 5%.
The ratio, α-SAT/NR, is the ratio of the mean LFL1 for the α-satellite DNA probe ([…]) to the mean LFL1 for the NR probe.

[2] = Precipitation of additional compound from the hybridization cocktail (Example 4); format: physicochemical; details: 10 percent in hybridization cocktail (HC-DMSO)
From the text: as §9

| Compound | Signal Intensity Scale of 1 to 4 [1] | Fluorescent signal (Scale of 1 to 4) (Hepg 2 cells) | 28S RNA Probe, mean LFL1 (Hela cells) | NR Probe, mean LFL1 (Hela cells) | Ratio 28S RNA/NR (ratio of mean LFL1) (Hela cells) | Signal brightness compared to nine percent DMSO alone (Hela cells) | NR Probe, mean LFL1 (α-satellite DNA) | α-SAT Probe, mean LFL1 (α-satellite DNA) | Ratio α-SAT/NR (ratio of mean LFL1) (α-satellite DNA) | Increase of DNA probe signal intensity compared to 9% DMSO alone (α-satellite DNA) | Precipitation from solution [2] | Signal intensity after precipitation (biphasic mixture) (Hela cells; 10 percent compound with 9% DMSO) |
| --- | --- | --- | --- | --- | --- | --- | --- | --- | --- | --- | --- | --- |
| CC(C)=CCC/C(C)=C/CC/C(C)=C/CC/C=C(\C)CC/C=C(\C)CCC=C(C)C [squalene] | 3 | – | – | – | – | – | – | – | – | – | – | – |
| C[Si](C)(C)O[Si](C)(C)C [hexamethyldisiloxane] | 2 | 1 | 7.426 | 0.126 | 59 | increased the signal brightness | – | – | – | – | – | – |
| CC(O)CO (centres unmarked) [1,2-propanediol] | 4 | 2 | 8.227 | 0.148 | 56 | increased the signal brightness | 0.151 | 5.876 | 39 | 1,8 fold | – | – |
| CCCCCCCC/C=C\CCCCCCCCO [oleyl alcohol] | 3 | 1.5 | 0.731 | 0.136 | – | – | – | – | – | – | precipitation from solution | markedly decreased |
| OC[C@H]1O[C@@H]2O[C@H]3[C@H](O)[C@@H](O)[C@@H](O[C@H]4[C@H](O)[C@@H](O)[C@@H](O[C@H]5[C@H](O)[C@@H](O)[C@@H](O[C@H]6[C@H](O)[C@@H](O)[C@@H](O[C@H]7[C@H](O)[C@@H](O)[C@@H](O[C@H]8[C@H](O)[C@@H](O)[C@@H](O[C@H]1[C@H](O)[C@H]2O)O[C@@H]8CO)O[C@@H]7CO)O[C@@H]6CO)O[C@@H]5CO)O[C@@H]4CO)O[C@@H]3CO [beta-cyclodextrin] | – | 1.5 | 9.593 | 0.135 | 71 | increased the signal brightness | 0.131 | 3.720 | 29 | – | – | – |
| CCCCCCCC/C=C\CCCCCCCC(=O)O [oleic acid] | – | 2 | 3.643 | 0.142 | 26 | – | – | – | – | – | – | – |
| hydroxypropylcyclodextrin | 2 | – | – | – | – | – | – | – | – | – | – | – |
| CCCCCCCCCCCCCCCC(=O)OC(C)C [isopropyl palmitate] | 4 | 1.5 | 8.057 | 0.140 | 58 | increased the signal brightness | 0.117 | 5.988 | 52 | 2.4 fold | – | – |
| O=C1CCCN1 [2-pyrrolidinone] | 3 | 2 | 10.19 | 0.133 | 77 | increased the signal brightness | 0.135 | 10.38 | 77 | 3.5 fold | – | – |
